Data from the supplement of paper PMC10307832.

Key:
Test in all cases: relative viability (nuclei count vs DMSO), 5 days (fraction); higher = more cells survive
NCI-H1993 = tested on: NCI-H1993
Procedure, shortened: (§1)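 Medians of duplicate plates are given as relative viability. That measure is the nuclei count in treated wells divided by the count in vehicle wells. Counts were taken on 4× images of lung cancer cell lines in 1536-well plates, 5 days after pin-tool dosing the day after seeding with one drug alone or a fixed anchor-drug dose plus five library-drug doses (not always all listed) in √10 steps.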

NCI-H2126 = tested on: NCI-H2126
Procedure, shortened: as §1

NCI-H2009 = tested on: NCI-H2009
Procedure, shortened: as §1

PC-14 = tested on: PC-14
Procedure, shortened: as §1

SK-MES-1 = tested on: SK-MES-1
Procedure, shortened: as §1

LU99A = tested on: LU99A
Procedure, shortened: as §1

HCC-366 = tested on: HCC-366
Procedure, shortened: as §1

HOP-62 = tested on: HOP-62
Procedure, shortened: as §1

LXF-289 = tested on: LXF-289
Procedure, shortened: as §1

LC-2-ad = tested on: LC-2-ad
Procedure, shortened: as §1

HCC-827 = tested on: HCC-827
Procedure, shortened: as §1

NCI-H522 = tested on: NCI-H522
Procedure, shortened: as §1

HCC-15 = tested on: HCC-15
Procedure, shortened: as §1

PC-3 [JPC-3] = tested on: PC-3 [JPC-3]
Procedure, shortened: as §1

COR-L23 = tested on: COR-L23
Procedure, shortened: as §1

NCI-H2087 = tested on: NCI-H2087
Procedure, shortened: as §1

CAL-12T = tested on: CAL-12T
Procedure, shortened: as §1

HARA = tested on: HARA
Procedure, shortened: as §1

NCI-H2170 = tested on: NCI-H2170
Procedure, shortened: as §1

LCLC-97TM1 = tested on: LCLC-97TM1
Procedure, shortened: as §1

HCC-44 = tested on: HCC-44
Procedure, shortened: as §1

COR-L 105 = tested on: COR-L 105
Procedure, shortened: as §1

**Q.** What does the source list for `COCC1(CO)C(=O)C2CCN1CC2` (stereo not drawn) [PRIMA-1MET] + Cc1cc(Nc2cc(N3CCN(C)CC3)nc(Sc3ccc(NC(=O)C4CC4)cc3)n2)n[nH]1 [Tozasertib] (partner 0.1 µM)?
**A.** relative viability (NCI-H1993; first compound 0.2 µM): 0.674; relative viability (NCI-H1993; first compound 0.6325 µM): 0.541; relative viability (NCI-H1993; first compound 2 µM): 0.566; relative viability (NCI-H1993; first compound 6.325 µM): 0.569; relative viability (NCI-H1993; first compound 20 µM): 0.662; relative viability (NCI-H2126; first compound 0.2 µM): 1.07; relative viability (NCI-H2126; first compound 0.6325 µM): 0.868; relative viability (NCI-H2126; first compound 2 µM): 0.854; relative viability (NCI-H2126; first compound 6.325 µM): 0.898; relative viability (NCI-H2126; first compound 20 µM): 0.807; relative viability (NCI-H2009; first compound 0.2 µM): 0.846; relative viability (NCI-H2009; first compound 0.6325 µM): 0.742; relative viability (NCI-H2009; first compound 2 µM): 0.948; relative viability (NCI-H2009; first compound 6.325 µM): 0.726; relative viability (NCI-H2009; first compound 20 µM): 0.0462; relative viability (PC-14; first compound 0.2 µM): 0.629; relative viability (PC-14; first compound 0.6325 µM): 0.55; relative viability (PC-14; first compound 2 µM): 0.519; relative viability (PC-14; first compound 6.325 µM): 0.714; relative viability (PC-14; first compound 20 µM): 0.386; relative viability (SK-MES-1; first compound 0.2 µM): 1.02; relative viability (SK-MES-1; first compound 0.6325 µM): 0.888; relative viability (SK-MES-1; first compound 2 µM): 0.962; relative viability (SK-MES-1; first compound 6.325 µM): 0.876; relative viability (SK-MES-1; first compound 20 µM): 0.907; relative viability (LU99A; first compound 0.2 µM): 0.282; relative viability (LU99A; first compound 0.6325 µM): 0.268; relative viability (LU99A; first compound 2 µM): 0.277; relative viability (LU99A; first compound 6.325 µM): 0.284; relative viability (LU99A; first compound 20 µM): 0.0311; relative viability (HCC-366; first compound 0.2 µM): 0.109; relative viability (HCC-366; first compound 0.6325 µM): 0.107; relative viability (HCC-366; first compound 2 µM): 0.107; relative viability (HCC-366; first compound 6.325 µM): 0.209; relative viability (HCC-366; first compound 20 µM): 0.0297; relative viability (HOP-62; first compound 0.2 µM): 0.426; relative viability (HOP-62; first compound 0.6325 µM): 0.341; relative viability (HOP-62; first compound 2 µM): 0.38; relative viability (HOP-62; first compound 6.325 µM): 0.383; relative viability (HOP-62; first compound 20 µM): 0.305; relative viability (LXF-289; first compound 0.2 µM): 0.217; relative viability (LXF-289; first compound 0.6325 µM): 0.173; relative viability (LXF-289; first compound 2 µM): 0.16; relative viability (LXF-289; first compound 6.325 µM): 0.175; relative viability (LXF-289; first compound 20 µM): 0.192; relative viability (LC-2-ad; first compound 0.2 µM): 0.422; relative viability (LC-2-ad; first compound 2 µM): 0.399; relative viability (LC-2-ad; first compound 6.325 µM): 0.429; relative viability (LC-2-ad; first compound 20 µM): 0.394; relative viability (HCC-827; first compound 0.2 µM): 0.424; relative viability (HCC-827; first compound 0.6325 µM): 0.387; relative viability (HCC-827; first compound 2 µM): 0.376; relative viability (HCC-827; first compound 6.325 µM): 0.399; relative viability (HCC-827; first compound 20 µM): 0.379; relative viability (NCI-H522; first compound 0.2 µM): 0.602; relative viability (NCI-H522; first compound 0.6325 µM): 0.455; relative viability (NCI-H522; first compound 2 µM): 0.46; relative viability (NCI-H522; first compound 6.325 µM): 0.507; relative viability (NCI-H522; first compound 20 µM): 0.0873; relative viability (HCC-15; first compound 0.2 µM): 0.431; relative viability (HCC-15; first compound 0.6325 µM): 0.363; relative viability (HCC-15; first compound 2 µM): 0.356; relative viability (HCC-15; first compound 6.325 µM): 0.422; relative viability (HCC-15; first compound 20 µM): 0.151; relative viability (PC-3 [JPC-3]; first compound 0.2 µM): 0.996; relative viability (PC-3 [JPC-3]; first compound 0.6325 µM): 0.856; relative viability (PC-3 [JPC-3]; first compound 2 µM): 0.857; relative viability (PC-3 [JPC-3]; first compound 6.325 µM): 0.89; relative viability (PC-3 [JPC-3]; first compound 20 µM): 0.873; relative viability (COR-L23; first compound 0.2 µM): 0.223; relative viability (COR-L23; first compound 0.6325 µM): 0.285; relative viability (COR-L23; first compound 2 µM): 0.212; relative viability (COR-L23; first compound 6.325 µM): 0.195; relative viability (COR-L23; first compound 20 µM): 0.0198; relative viability (NCI-H2087; first compound 0.2 µM): 0.321; relative viability (NCI-H2087; first compound 0.6325 µM): 0.279; relative viability (NCI-H2087; first compound 2 µM): 0.267; relative viability (NCI-H2087; first compound 6.325 µM): 0.271; relative viability (NCI-H2087; first compound 20 µM): 0.126; relative viability (CAL-12T; first compound 0.2 µM): 0.339; relative viability (CAL-12T; first compound 0.6325 µM): 0.275; relative viability (CAL-12T; first compound 2 µM): 0.282; relative viability (CAL-12T; first compound 6.325 µM): 0.326; relative viability (CAL-12T; first compound 20 µM): 0.263; relative viability (HARA; first compound 0.2 µM): 0.119; relative viability (HARA; first compound 0.6325 µM): 0.0972; relative viability (HARA; first compound 6.325 µM): 0.112; relative viability (HARA; first compound 20 µM): 0.118; relative viability (NCI-H2170; first compound 0.2 µM): 0.9; relative viability (NCI-H2170; first compound 0.6325 µM): 0.671; relative viability (NCI-H2170; first compound 2 µM): 0.677; relative viability (NCI-H2170; first compound 6.325 µM): 0.722; relative viability (NCI-H2170; first compound 20 µM): 0.678; relative viability (LCLC-97TM1; first compound 0.2 µM): 0.237; relative viability (LCLC-97TM1; first compound 0.6325 µM): 0.239; relative viability (LCLC-97TM1; first compound 2 µM): 0.325; relative viability (LCLC-97TM1; first compound 6.325 µM): 0.204; relative viability (LCLC-97TM1; first compound 20 µM): 0.123; relative viability (HCC-44; first compound 0.2 µM): 1.18; relative viability (HCC-44; first compound 0.6325 µM): 0.958; relative viability (HCC-44; first compound 2 µM): 0.811; relative viability (HCC-44; first compound 6.325 µM): 1.01; relative viability (HCC-44; first compound 20 µM): 0.827; relative viability (COR-L 105; first compound 0.2 µM): 0.228; relative viability (COR-L 105; first compound 0.6325 µM): 0.338; relative viability (COR-L 105; first compound 2 µM): 0.32; relative viability (COR-L 105; first compound 6.325 µM): 0.294; relative viability (COR-L 105; first compound 20 µM): 0.167
